# Source: patent US20110217300A1, “Quinazolinone Compounds and Methods of Use Thereof” (priority 2007, published 2011)
# Read-outs that look alike come from different tables or passages of the source.
# Tests used:
# [1] = molecular target: T1, HsEg5 (Homo sapiens, UniProt P52732); assay: Fluorescence detection of HsEg5 ATPase activity (ADP Quest, automated); type: biochemical
# T1 sequence (P52732 18-359 limits assumed): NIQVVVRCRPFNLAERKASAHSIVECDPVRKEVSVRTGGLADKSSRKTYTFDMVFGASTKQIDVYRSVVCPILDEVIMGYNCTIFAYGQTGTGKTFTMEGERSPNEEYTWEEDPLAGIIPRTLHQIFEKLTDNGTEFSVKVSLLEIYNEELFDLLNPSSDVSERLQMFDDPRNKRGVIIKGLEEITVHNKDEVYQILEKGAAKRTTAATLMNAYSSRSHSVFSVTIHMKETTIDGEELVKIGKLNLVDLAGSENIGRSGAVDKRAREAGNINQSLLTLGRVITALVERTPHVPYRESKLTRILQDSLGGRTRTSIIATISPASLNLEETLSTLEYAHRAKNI
# Procedure, shortened: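 Microtubule-activated HsEg5 motor fragment (10 nM, 500 nM MTs) preincubated 10 min with compound, then 20 μM ATP for 10 min at room temperature in Pipes pH 7.0, MgCl2, paclitaxel, 0.3% DMSO. ADP detected via coupled-enzyme resorufin fluorescence; IC50 over 100 μM–5 nM.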
# [2] = system: A549; assay: MTS cell viability assay; type: cell-based; conditions: Homo sapiens, read-out: MTS NCI A549 GI50
# Procedure, shortened: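 A549 and a second human cancer line seeded in DMEM/10% FBS, allowed 16–24 h to attach, then exposed 72 h at 37 °C, 5% CO2 to serially diluted compound (final DMSO 0.33%). Viability measured by MTS.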
# [3] = system: NCI-H460; assay: MTS cell viability assay; type: cell-based, human; conditions: Homo sapiens, NCI-H460, 72 h, read-out: MTS NCI H460 GI50
# Procedure, shortened: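 72 h compound treatment, 0.33% DMSO; […] PMS 7.67 mg/L, 4 h; 1.4% SDS; […]. Cells 100-5000/well, 37° C., 5% CO2. Output GI50, ≥2 replicates.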
# [4] = molecular target: T1, HsEg5; assay: Luminescent detection of HsEg5 ATPase activity (Kinase-Glo Plus); type: biochemical
# Method: Purified HsEg5 motor fragment was activated by mixture with preformed MT polymer (Cytoskeleton, Denver, Colo.) at room temperature for 20 minutes. MT activated ATPase activity was measured using Kinase-Glo® Plus Luminescent Kinase Assay (Promega, Madison, Wis.).
# For inhibitor screening, 5 μL of compounds were incubated with 20 μL of MT-activated HsEg5 such that the final concentrations for compound range from 100 μM to 5 nM (1 to 3 serial dilutions, final concentration) and final concentration for HsEg5 is 25 nM. The mixture was incubated at room temperature for 20 minutes with mild shaking. The screening assay contained 0.3% DMSO in all reaction wells. We used wells containing only DMSO as negative controls and wells without ATP as background. Addition of 15 μL of 13 μM ATP (final concentration of 5 μM) initiated the ATP hydrolysis reaction. The 40 μL-reaction was allowed to proceed at room temperature for 45 minutes before addition of 40 μL of Kinase®-Glo Plus. After 15-minute development at room temperature, the luminescent was measured.
# Eg5 IC50 data was generated using both fluorescence and Luminescence detection assays as described above. Compounds I-69 were screened using automated fluorescence assay while compounds 70-83 were screened using Luminescence detection assay. (See reference “Zhang B, Senator D, Wilson C J, Ng S C. (2005) “Development of a high-throughput robotic fluorescence-based assay for HsEg5 inhibitor screening” Anal Biochem. 345:326-335″).
# [5] = A549 non small cell lung, 72 hours
SMILES,IC50 [4] [nM],IC50 [1] [nM],"GI50 [2, 5] [nM]",GI50 [3] [nM],"GI50 ([2]; A549, 72 h) [nM]"
"CCC(c1nc2cc(Cl)ccc2c(=O)n1Nc1ccccc1)N(CCN)C(=O)c1cccc(Cl)c1F (stereo not shown) [Compound 64, N-(2-Aminoethyl)-N-[1-(3-anilino-7-chloro-4-oxo-3,4-dihydroquinazolin-2-yl)propyl]-3-chloro-2-fluorobenzamide]",–,1460,12600,6810,–
"CCC(c1nc2cc(Cl)ccc2c(=O)n1Nc1ccccc1)N(CCN)C(=O)c1ccc(C)c(F)c1F (stereo not shown) [Compound 65, N-(2-Aminoethyl)-N-[1-(3-anilino-7-chloro-4-oxo-3,4-dihydroquinazolin-2-yl)propyl]-2,3-difluoro-4-methylbenzamide]",–,4080,12400,11400,–
"CCC(c1nc2cc(Cl)ccc2c(=O)n1Nc1ccccc1)N(CCCN)Cc1ccc(C)cc1 (stereo not shown) [Compound 67, 2-{1-[(3-Aminopropyl)(4-methyl-benzyl)amino]propyl}-3-anilino-7-chloro-3H-quinazolin-4-one]",–,8300,15500,13100,–
C#CC[C@H](c1nc2cc(Cl)ccc2c(=O)n1Nc1ccccc1)N(CCCN)C(=O)c1c(F)c(F)cc(F)c1F [Compound 71],160,–,–,320,840
"CC#CCC(c1nc2cc(Cl)ccc2c(=O)n1Nc1ccccc1)N(CCCN)C(=O)c1cccc(Cl)c1F (stereo not shown) [Compound 74, N-(3-Aminopropyl)-3-chloro-N-(1-(7-chloro-4-oxo-3-(phenylamino)-3,4-dihydroquinazolin-2-yl)pent-3-ynyl)-2-fluorobenzamide]",5900,–,–,1230,1800
C#CC[C@H](c1nc2cc(Cl)ccc2c(=O)n1Nc1ccccc1)N(CCCN)C(=O)c1c(F)cc(Cl)cc1F [Compound 79],550,–,–,430,1300
"C#CC[C@H](c1nc2cc(Cl)ccc2c(=O)n1Nc1ccccc1)N(CCCN)C(=O)c1cc(F)cc(F)c1F [Compound 81, (R)—N-(3-Aminopropyl)-N-(1-(7-chloro-4-oxo-3-(phenylamino)-3,4-dihydroquinazolin-2-yl)but-3-ynyl)-2,3,5-trifluorobenzamide]",160,–,–,340,660
"C#CC[C@H](c1nc2cccnc2c(=O)n1Nc1ccccc1)N(CCCN)C(=O)c1cccc(Cl)c1F [Compound 83, (R)—N-(3-Aminopropyl)-3-chloro-2-fluoro-N-(1-(4-oxo-3-(phenylamino)-3,4-dihydropyrido[3,2-d]pyrimidin-2-yl)but-3-ynyl)benzamide]",6600,–,–,27000,> 100000

# More lines, in order of falling IC50 [4], values ahead:
IC50 [4] [nM],SMILES,IC50 [1] [nM],"GI50 [2, 5] [nM]",GI50 [3] [nM],"GI50 ([2]; A549, 72 h) [nM]"
130,"C#CC[C@H](c1nc2cc(Cl)ccc2c(=O)n1Nc1ccccc1)N(CCCN)C(=O)c1ccc(C)c(F)c1F [Compound 76, N-(3-Amino-propyl)-N—[(R)-1-(7-chloro-4-oxo-3-phenylamino-3,4-dihydro-quinazolin-2-yl)-but-3-ynyl]-2,3-difluoro-4-methyl-benzamide]",–,–,860,1300
120,"C#CC[C@H](c1nc2cc(Cl)ccc2c(=O)n1Nc1ccccc1)N(CCCN)C(=O)c1cc2ccccc2s1 [Compound 73, (R)—N-(3-Aminopropyl)-N-(1-(7-chloro-4-oxo-3-(phenylamino)-3,4-dihydroquinazolin-2-yl)but-3-ynyl)benzo[b]thiophene-2-carboxamide]",–,–,330,490
90,"C#CC[C@H](c1nc2cc(Cl)ccc2c(=O)n1Nc1ccccc1)N(CCCN)C(=O)c1ccc(C)cc1 [Compound 75, N-(3-Amino-propyl)-N—[(R)-1-(7-chloro-4-oxo-3-phenylamino-3,4-dihydro-quinazolin-2-yl)-but-3-ynyl]-4-methyl-benzamide]",–,–,1500,2800
90,"C#CC[C@H](c1nc2cc(Cl)ccc2c(=O)n1Nc1ccccc1)N(CCCN)C(=O)c1cc(F)cc(F)c1 [Compound 80, (R)—N-(3-Aminopropyl)-N-(1-(7-chloro-4-oxo-3-(phenylamino)-3,4-dihydroquinazolin-2-yl)but-3-ynyl)-3,5-difluorobenzamide]",–,–,100,580
70,C#CC[C@H](c1nc2cc(Cl)ccc2c(=O)n1Nc1ccccc1)N(CCCN)C(=O)c1c(OC)ccc(F)c1F [Compound 77],–,–,530,860
40,"C#CC[C@H](c1nc2cc(Cl)ccc2c(=O)n1Nc1ccccc1)N(CCCN)C(=O)c1cc(F)c(F)c(F)c1F [Compound 72, (R)—N-(3-Aminopropyl)-N-(1-(7-chloro-4-oxo-3-(phenylamino)-3,4-dihydroquinazolin-2-yl)but-3-ynyl)-2,3,4,5-tetrafluorobenzamide]",–,–,330,620
40,C#CC[C@H](c1nc2cc(Cl)ccc2c(=O)n1Nc1ccccc1)N(CCCN)C(=O)c1ccc(OC)c(F)c1F [Compound 78],–,–,700,1450
30,"C#CC[C@H](c1nc2cc(Cl)ccc2c(=O)n1Nc1ccccc1)N(CCCN)C(=O)c1cccc(F)c1F [Compound 82, (R)—N-(3-Aminopropyl)-N-(1-(7-chloro-4-oxo-3-(phenylamino)-3,4-dihydroquinazolin-2-yl)but-3-ynyl)-2,3-difluorobenzamide]",–,–,–,–
